Assay results published in patent US12605352B2, “Compositions and methods for inhibiting blood cancer cell growth” (UNIVERSITY OF NEW BRUNSWICK, priority 2019, dated 2026).

Key:
KMM1 cells = experiment: Annexin V-PI flow cytometry apoptosis assay on KMM1 myeloma cells; type: cell-based, human; details: 10 uM, 72-hour treatment
Procedure: Induction of apoptosis in myeloma cells by various inhibitors was determined by staining exposed phosphatidylserine with Annexin V-FITC and DNA with Propidium iodide using Alexa Fluor® 488 annexin V/Dead Cell Apoptosis Kit (Invitrogen, ThermoFisher Scientific, CA) according to the manufacturer's instructions. Single-cell suspensions were analyzed on a Beckmann Coulter Gallios Flow Cytometer with Kaluza analyses software. Twenty-five thousand events were acquired for every condition. Apoptotic cells were scored as Annexin V+, PI− and Annexin V+, PI+.
Referring to FIG. 6, Apoptotic effect of veh/vehicle (DMSO), lenalidomide (len), pomalidomide (pom), CAPE, GL8, As26 and J229 (all compounds at 10 uM concentration) on KMM1 cells upon 72-hour treatment followed by Annexin V-PI flow cytometry analyses is shown. Percentage of early and late apoptotic cells are presented as mean±SD (*P≤0.05; **P≤0.01).

[1] = tested on: myeloma cell lines (KMM1, MM1R, JJN3); experiment: PrestoBlue cell viability assay, concentration response on myeloma cell lines; type: cell-based, human; details: in comparison to IMiDs, CAPE, GL8 and J229; 48 hours
Procedure: Myeloma cell lines were treated for 3 or 5 days with increasing concentration of lenalidomide (FIG. 5A) and pomalidomide (FIG. 5B). KMM1 cells (FIG. 5D), MM1R cells (FIG. 5E), and JJN3 cells (FIG. 5F) were treated for 48 hours with varying concentration of CAPE, GL8, As26 and J229. The cell growth inhibition was determined by PrestoBlue cell viability assay. Data from three independent experiments is presented as mean±SD. IC50 values (FIG. 5C) representing half-maximal inhibitory concentration of compounds were determined using GraphPad prism analyses software.

[2] = tested on: OCI-LY3 human lymphoma cells; experiment: Cell growth inhibition (cell viability assay) on IMiD-resistant human lymphoma cells OCI-LY3; type: cell-based; details: for anti-lymphoma cell growth inhibition (in words) / inhibition at 10 µM: 10 uM; for anti-lymphoma cell growth inhibition (in words): OCI-LY3, listed in decreasing order of bioactivity; for inhibition at 1 µM / inhibition at 10 µM: Homo sapiens, OCI-LY3 cells, 48 hr treatment
Text: (§1) In certain embodiments of the present invention, the remarkable cancer cell growth inhibitory potential of caffeic acid phenpropyl ester analogues was established by treating human leukemia, myeloma and lymphoma cell lines with the analogues of Table 1 and measuring the viability of blood cancer cells by cell viability assay. The efficacy of the analogues of Table 1 in comparison to a standard chemotherapy drug was confirmed.
With reference to Table 3 and FIG. 2, FIG. 2 is a bar graph depicting cell growth inhibitory effect of caffeic acid phenpropyl ester (GL8) analogues according to certain aspects of the present disclosure at 1 uM concentration on human lymphoma cells (Cell line: OCI-LY3; 48 hr treatment).
With reference to Table 1, Table 4 and FIG. 3, FIG. 3 is a bar graph depicting cell growth inhibitory effect of caffeic acid phenpropyl ester (GL8) analogues according to certain aspects of the present disclosure at 10 uM concentration on human lymphoma cells (Cell line: OCI-LY3; 48 hr treatment).

[3] = tested on: KMM-1 human myeloma cells; experiment: Cell growth inhibition (cell viability assay) on IMiD-resistant human myeloma cells KMM-1; type: cell-based; details: for anti-myeloma cell growth inhibition (in words): 10 uM, KMM-1, listed in decreasing order of bioactivity; for inhibition at 10 µM: Homo sapiens, KMM-1 cells, 48 hr treatment
Text: as §1
With reference to Table 1, Table 2 and FIG. 1, FIG. 1 is a bar graph depicting cell growth inhibitory effect of caffeic acid phenpropyl ester (GL8) analogues at 10 uM concentration according to certain aspects of the present disclosure on human myeloma cells (Cell line: KMM-1; 48 hr treatment).

[4] = tested on: HL-60 human leukemia cells; experiment: Cell growth inhibition (cell viability assay) on human leukemia cells HL-60; type: cell-based; details: HL-60 cells, 48 hr treatment
Text: as §1
With reference to Table 5 and FIG. 4, FIG. 4 is a bar graph depicting cell growth inhibitory effect of caffeic acid phenpropyl ester (GL8) analogues at 10 uM concentration according to certain aspects of the present disclosure on human leukemia cells (Cell line: HL-60; 48 hr treatment).

| SMILES | apoptotic effect (in words) (KMM1 cells) | myeloma cell growth inhibitory effect (in words) [1] | anti-lymphoma cell growth inhibition (in words) [2] | inhibition at 1 µM [2] [%] | inhibition at 10 µM [2] [%] | anti-myeloma cell growth inhibition (in words) [3] | inhibition at 10 µM [3] [%] | inhibition at 10 µM [4] [%] |
| --- | --- | --- | --- | --- | --- | --- | --- | --- |
| O=C(/C=C/c1cc(O)ccc1O)OCCCc1ccccc1 [As26, (E)-3-phenylpropyl 3-(2,5-dihydroxyphenyl)acrylate] | Remarkable apoptotic effect | superior myeloma cell growth inhibitory effect | superior anti-lymphoma cell growth inhibition | 26.6 | 90.3 | superior anti-myeloma cell growth inhibition | 89.7 | 54.4 |
| O=C(/C=C/c1ccc(O)cc1O)OCCCc1ccccc1 [MT72, (E)-3-phenylpropyl 3-(2,4-dihydroxyphenyl)acrylate] |  |  |  | 3.3 | -4.5 |  | -0.2 | -8.2 |
| O=C(/C=C/c1ccc(O)c(O)c1)Oc1ccccc1 [GL9, (E)-phenyl 3-(3,4-dihydroxyphenyl)acrylate] |  |  |  | 26.3 | 44.7 |  | 26 | 6.8 |
| O=C(/C=C/c1ccc(O)c(O)c1)OC/C=C/c1ccccc1 [LL14, (2E)-cinnamyl 3-(3,4-dihydroxyphenyl)acrylate] |  |  |  | -1 | 61.5 |  | 16.1 | 21.6 |
| O=C(/C=C/c1ccc(O)c(O)c1)OCC#Cc1ccccc1 [Molecule J91, (E)-3-phenylprop-2-ynyl 3-(3,4-dihydroxyphenyl)acrylate] |  |  |  | 0.3 | 39.8 | superior anti-myeloma cell growth inhibition | 31.7 | 32.4 |
| Cc1ccc(CCOC(=O)/C=C/c2ccc(O)c(O)c2)cc1 [MT25, (E)-(4-methylphenethyl) 3-(3,4-dihydroxyphenyl)acrylate] |  |  |  | 10 | 59.8 |  | 21.6 | 28.7 |
| COc1cc(/C=C/C(=O)OCCCc2ccccc2)cc(OC)c1O [HM7, (E)-3-phenylpropyl 3-(4-hydroxy-3,5-dimethoxyphenyl)acrylate] |  |  | superior anti-lymphoma cell growth inhibition | -4.9 | 90 | superior anti-myeloma cell growth inhibition | 26.6 | 24.1 |
| O=C(/C=C/c1ccc(O)c(O)c1)OCCCc1ccccc1 [GL8, caffeic acid phenpropyl ester, reference compound] |  |  |  | -4.6 | 78.7 |  | 28.2 | 36 |
| O=C(/C=C/c1ccc(O)c(O)c1)OCCCCc1ccccc1 [LL23, (E)-4-phenylbutyl 3-(3,4-dihydroxyphenyl)acrylate] |  |  |  | -9.3 | 71.7 | superior anti-myeloma cell growth inhibition | 27.2 | 33 |
| O=C(/C=C/c1ccc(O)c(O)c1)CCCc1ccccc1 [Molecule J205, (E)-1-(3,4-dihydroxyphenyl)-6-phenylhex-1-en-3-one] |  |  |  | 18.7 | 76.6 |  | 22.2 | 60.7 |
| COc1cc(/C=C/C(=O)OCCCc2ccccc2)ccc1O [MT50, (E)-3-phenylpropyl 3-(4-hydroxy-3-methoxyphenyl)acrylate] |  |  |  | -0.7 | 1.5 |  | 13.6 | 13.4 |
| O=C(/C=C/c1ccc(O)c(O)c1)OCCc1ccc(F)cc1 [MT26, (E)-(4-fluorophenethyl) 3-(3,4-dihydroxyphenyl)acrylate] |  |  | superior anti-lymphoma cell growth inhibition | 0.7 | 79.3 |  | 25.9 | 32.1 |
| O=C(/C=C/c1ccc(O)c(O)c1)OCCc1ccccc1 [CAPE, Caffeic acid (3,4-dihydroxycinnamic acid) phenethyl ester, reference compound] |  |  |  | -24.3 | 51.8 |  | 14.7 | -6.8 |
| O=C(/C=C/c1ccc(O)c(O)c1)NCCCc1ccccc1 [LL28, (E)-3-(3,4-dihydroxypheny1)-N-(3-phenylpropyl)acrylamide] |  |  |  | -9.5 | 36 |  | 15.8 | 8.7 |
| O=C(/C=C/c1ccc(O)c(O)c1)OCc1ccccc1 [GL7, (E)-benzyl 3-(3,4-dihydroxyphenyl)acrylate] |  |  |  | 10.5 | 18.9 |  | 15.9 | 20.5 |
| COc1cc(/C=C/C(=O)OCCc2ccccc2)cc(OC)c1O [HM5, (E)-phenethyl 3-(4-hydroxy-3,5-dimethoxyphenyl)acrylate] |  |  |  | 3.1 | -15.4 |  | -8.6 | -13.3 |
| COc1cc(/C=C/C(=O)OCCc2ccccc2)ccc1O [MT49, (E)-phenethyl 3-(4-hydroxy-3-methoxyphenyl)acrylate] |  |  |  | -1 | 1.2 |  | 6.5 | 14.4 |
| O=C(/C=C/c1cccc(O)c1O)OCCCc1ccccc1 [As25, (E)-3-phenylpropyl 3-(2,3-dihydroxyphenyl)acrylate] |  |  | superior anti-lymphoma cell growth inhibition | 69 | 84 |  | 15.1 | 13.6 |
| Nc1cccc2c1CN(C1CCC(=O)NC1=O)C2=O (stereo not shown) [Lenalidomide, lenalidomide, reference compound] |  |  |  |  | 7.5 |  | 7.5 | 1.6 |
| Oc1ccc(/C=C/COCCCc2ccccc2)cc1O [Molecule J229, 4-((E)-3-(3-phenylpropoxy)prop-1-enyl)benzene-1,2-diol] |  |  | superior anti-lymphoma cell growth inhibition | 2.3 | 78.2 | superior anti-myeloma cell growth inhibition | 49.4 | 54.3 |
